Legend:
[1] = system: thoracic aorta rings exposed to peroxynitrite; test: Ex vivo vascular reactivity: contraction of thoracic aorta rings from norepinephrine, after complete ligation of the left carotid artery and 14 days of treatment; format: in vivo, C57Bl/6 strain mice; settings: aorta rings collected day 14, exposed to peroxynitrite 1 mM, per os once a day for 14 days
Method: (§1) (as described by Q.Xu “Mouse models of arteriosclerosis: from arterial injuries to vascular grafts” Am J Pathol. (2014); 165(1):1-10). […] Cuzzocrea et al “Superoxide: a key player in hypertension” FASEB J. […] In particular, the ex vivo measurement of vascular reactivity is carried out with the following procedures: Adult mice of the C57Bl/6 strain weighing 25-30 g are used (Envigo-Italy). The groups of animals on which the evaluations were carried out (10 animals per group) were the following: • Group 1—Animals treated per os with 10 mg/kg of co-micronized palmitoyl-ethanolamide: […] Rutin in a 1:1 ratio, suspended in 1% carboxymethylcellulose solution and with the addition of 0.5 mg/kg of pure hydroxytyrosol in the final solution. At the end of the treatments, the thoracic aortas of the animals are taken and adequately cleaned of the adherent peri-adventitious fat and 3-4 mm rings are cut out. The rings are placed in Krebs solution at pH 7.4 (Krebs solution composition: NaCl 118 mM; KCl 4.7 mM; KH2PO4 1.2 mM; CaCl2 2.5 mM; MgSO4 1.2 mM; NaHCO3 25 mM; glucose 11.7 mM). […] A voltage of 1 g is applied, and the Krebs solution is exchanged every 15 minutes. The aorta rings are exposed to a concentration of peroxynitrile 1 mM.

[2] = system: thoracic aorta rings exposed to peroxynitrite; test: Ex vivo vascular reactivity: endothelium-dependent release of thoracic aorta rings from acetylcholine, after complete ligation of the left carotid artery and 14 days of treatment; format: in vivo, C57Bl/6 strain mice; settings: aorta rings collected day 14, exposed to peroxynitrite 1 mM, per os once a day for 14 days
Method: as §1

[3] = Trolox equivalent; cited from earlier work

SMILES | Contraction (g) from Norepinephrine ([1]; Norepinephrine 100 nM) [g] | Contraction (g) from Norepinephrine ([1]; Norepinephrine 1,000 nM) [g] | Contraction (g) from Norepinephrine ([1]; Norepinephrine 10,000 nM) [g] | Vascular Tone-% of Pre-Contraction from Acetylcholine ([2]; Acetylcholine 0.1 μM) [%] | Vascular Tone-% of Pre-Contraction from Acetylcholine ([2]; Acetylcholine 1.0 μM) [%] | Vascular Tone-% of Pre-Contraction from Acetylcholine ([2]; Acetylcholine 10.0 μM) [%] | ORAC (Oxygen Radical Absorbance Capacity) index [3]
CCCCCCCCCCCCCCCC(=O)NCCO [Group 2, palmitoyl-ethanolamide] | 0.20 | 0.40 | 0.70 | 99 | 94 | 85 | 
OCCc1ccc(O)c(O)c1 [hydroxytyrosol, 1-(2-hydroxy)ethyl-3,4-dihydroxybenzene] |  |  |  |  |  |  | 40,000 μmolTE/g
C[C@@H]1O[C@@H](OC[C@H]2O[C@@H](Oc3c(-c4ccc(O)c(O)c4)oc4cc(O)cc(O)c4c3=O)[C@H](O)[C@@H](O)[C@@H]2O)[C@H](O)[C@H](O)[C@H]1O [Group 3, Rutin] | 0.20 | 0.40 | 0.70 | 100 | 96 | 81 | 

Reference: patent publication US11819511B2, “Composition of N-palmitoyl-ethanolamide and Rutin in co-micronized form” (EPITECH GROUP S.P.A, priority 2019, dated 2023)
